Experimental findings from patent publication US4639541A, “Substituted phenylacetic acid iodopropargyl esters, biocidal agents containing same and process for manufacturing same” (priority 1984, dated 1987) are described below.

Holding throughout (format): cell-based
Conditions in all cases: 48 hours, 20° C., vs untreated control

One test has as its system Verticillium dahliae. The experiment in a line: Spore germination test, Verticillium dahliae. How it is done:
(§1) 50 μl of a solution or suspension of an active ingredient according to the invention together with 50 μl of a spore suspension produced by washing spores of an agar culture with a nutrient solution that contained per liter 10 g of sugar, 1 g of glycol, 1 g of KH2 PO4 and 0.5 g of MgSO4 were introduced into the concave-ground portion of concave-ground microscope slides.
(§2) The microscope slides were stored at 20° C. for 48 hours in a Petri dish, the base of which was covered with a moistened filter paper.
(§3) Subsequently, the ratio of germinated and non-germinated spores was compared with an untreated control specimen.
(§4) The degree of activity was calculated as a percentage in accordance with the following formula: [formula]

The next test concerns Fusarium nivale. The test can be described thus: Spore germination test, Fusarium nivale. As for the experimental part:
as §1, §2, §3, §4

Another test has as its system Fusarium culmorum. The test can be described thus: Spore germination test, Fusarium culmorum. As for the experimental part:
as §1, §2, §3, §4

The test system of the next test is Penicillium glaucum. The experiment in a line: Spore germination test, Penicillium glaucum. As for the experimental part: as §1, §2, §3, §4
In a further test the test system is Botrytis cinerea. The experiment in a line: Spore germination test, Botrytis cinerea. As for the experimental part: as §1, §2, §3, §4
Another test concerns Alternaria tenuis. The test can be described thus: Spore germination test, Alternaria tenuis. How it is done: as §1, §2, §3, §4
A further test has as its system Colletotrichum coffeanum. The experiment in a line: Spore germination test, Colletotrichum coffeanum. As for the experimental part: as §1, §2, §3, §4

Take `O=C(Cc1ccc(Cl)cc1)OCC#CI` [A]: the “degree of activity (fungal toxicity with respect to fungal spores)” value (“degree of activity” for short) with Verticillium dahliae (1 ppm) is 80%; in the test on Verticillium dahliae (2 ppm) it was 80%; in the test with Verticillium dahliae (4 ppm), 95%; in the test with Fusarium nivale (1 ppm), 60%; in the test on Fusarium nivale (2 ppm), 80%; in the test on Fusarium nivale (4 ppm) it was 90%. Moreover, the “degree of activity” value is on record as 90% in the test with Fusarium culmorum (1 ppm); 95% in the test with Fusarium culmorum (2 ppm); 95% in the test on Fusarium culmorum (4 ppm); 90% in the test with Penicillium glaucum (1 ppm); 95% in the test with Penicillium glaucum (2 ppm); 95% in the test with Penicillium glaucum (4 ppm). The “degree of activity” value in the test on Botrytis cinerea (1 ppm) is on record as 80%; with Botrytis cinerea (2 ppm), 80%; in the test on Botrytis cinerea (4 ppm), 90%; with Alternaria tenuis (1 ppm) it was 80%; in the test on Alternaria tenuis (2 ppm), 80%; in the test with Alternaria tenuis (4 ppm) it was 90%. For the same compound, the “degree of activity” value in the test with Colletotrichum coffeanum (1 ppm) was found to be 80%; in the test with Colletotrichum coffeanum (2 ppm), 90%; in the test with Colletotrichum coffeanum (4 ppm), 95%.
With `O=C(OCC#CI)C(Br)c1ccc(Cl)cc1` (stereo not drawn) [B], the “degree of activity” value with Verticillium dahliae (1 ppm), in the test with Verticillium dahliae (2 ppm), with Verticillium dahliae (4 ppm), in the test with Fusarium nivale (1 ppm), with Fusarium nivale (2 ppm) and with Fusarium nivale (4 ppm) was 100% each time. The “degree of activity” value in the test with Fusarium culmorum (1 ppm), with Fusarium culmorum (2 ppm), with Fusarium culmorum (4 ppm), in the test with Penicillium glaucum (1 ppm), in the test on Penicillium glaucum (2 ppm) and in the test with Penicillium glaucum (4 ppm) was 100% throughout. The “degree of activity” value in the test on Botrytis cinerea (1 ppm), in the test with Botrytis cinerea (2 ppm), in the test with Botrytis cinerea (4 ppm), with Alternaria tenuis (1 ppm), with Alternaria tenuis (2 ppm) and in the test on Alternaria tenuis (4 ppm) was 100% each time. Further, the “degree of activity” value in the test on Colletotrichum coffeanum (1 ppm), with Colletotrichum coffeanum (2 ppm) and with Colletotrichum coffeanum (4 ppm) was 100% in each case.
As to `O=C(Cc1c(Cl)cccc1Cl)OCC#CI` [C], the “degree of activity” value in the test on Verticillium dahliae (1 ppm), in the test with Verticillium dahliae (2 ppm), in the test on Verticillium dahliae (4 ppm), in the test on Fusarium nivale (1 ppm), with Fusarium nivale (2 ppm) and in the test with Fusarium nivale (4 ppm) was 100% throughout. The “degree of activity” value in the test on Fusarium culmorum (1 ppm) is given as 95%; in the test with Fusarium culmorum (2 ppm), 95%; in the test with Fusarium culmorum (4 ppm), 95%; with Penicillium glaucum (1 ppm) it was 60%; in the test with Penicillium glaucum (2 ppm) it was 90%; in the test with Penicillium glaucum (4 ppm), 90%. Besides, the “degree of activity” value is recorded as 95% in the test with Botrytis cinerea (1 ppm); 95% in the test with Botrytis cinerea (2 ppm); 100% in the test with Botrytis cinerea (4 ppm); 95% with Alternaria tenuis (1 ppm); 95% in the test with Alternaria tenuis (2 ppm); 95% with Alternaria tenuis (4 ppm). Also, the “degree of activity” value with Colletotrichum coffeanum (1 ppm), with Colletotrichum coffeanum (2 ppm) and in the test with Colletotrichum coffeanum (4 ppm) was 95% in each case.
As to `O=C(OCC#CI)C(Cl)c1ccccc1` (stereo not drawn) [D], the “degree of activity” value is 80% with Verticillium dahliae (1 ppm); 80% in the test on Verticillium dahliae (2 ppm); 95% with Verticillium dahliae (4 ppm); 60% with Fusarium nivale (1 ppm); 80% in the test on Fusarium nivale (2 ppm); 90% in the test with Fusarium nivale (4 ppm). Further, the “degree of activity” value in the test with Fusarium culmorum (1 ppm) was determined as 90%; with Fusarium culmorum (2 ppm), 95%; in the test on Fusarium culmorum (4 ppm), 95%; in the test with Penicillium glaucum (1 ppm), 90%; in the test on Penicillium glaucum (2 ppm), 95%; in the test with Penicillium glaucum (4 ppm) it was 95%. Besides, the “degree of activity” value was 80% in the test with Botrytis cinerea (1 ppm); 80% in the test with Botrytis cinerea (2 ppm); 90% in the test on Botrytis cinerea (4 ppm); 80% with Alternaria tenuis (1 ppm); 90% in the test on Alternaria tenuis (2 ppm); 90% in the test on Alternaria tenuis (4 ppm). Besides, the entries for the “degree of activity” value in the test with Colletotrichum coffeanum (1 ppm), in the test on Colletotrichum coffeanum (2 ppm) and in the test with Colletotrichum coffeanum (4 ppm) were 80%, 90% and 95%, respectively.
Take `O=C(Cc1cc([N+](=O)[O-])c(Cl)cc1Cl)OCC#CI` [E]: the “degree of activity” value in the test with Verticillium dahliae (1 ppm) is 30%; with Verticillium dahliae (2 ppm), 30%; with Verticillium dahliae (4 ppm) it was 40%; in the test with Fusarium nivale (1 ppm), 100%; in the test on Fusarium nivale (2 ppm) it was 100%; with Fusarium nivale (4 ppm), 100%. Also, the “degree of activity” value in the test on Fusarium culmorum (1 ppm), in the test on Fusarium culmorum (2 ppm), with Fusarium culmorum (4 ppm), with Penicillium glaucum (1 ppm), in the test on Penicillium glaucum (2 ppm) and in the test on Penicillium glaucum (4 ppm) was 100% each time. The “degree of activity” value in the test on Botrytis cinerea (1 ppm) is listed as 30%; in the test with Botrytis cinerea (2 ppm), 30%; with Botrytis cinerea (4 ppm) it was 40%; with Alternaria tenuis (1 ppm) it was 100%; in the test on Alternaria tenuis (2 ppm), 100%; in the test with Alternaria tenuis (4 ppm), 100%. For the same compound, the “degree of activity” value in the test with Colletotrichum coffeanum (1 ppm), with Colletotrichum coffeanum (2 ppm) and with Colletotrichum coffeanum (4 ppm) was 100% in each case.
